The values that follow come from US9328122B2, “7-substituted Hanfangichin B derivative, and preparation method and use thereof” (HANGZHOU BENSHENG PHARMACEUTICAL CO., LTD., priority 2012, dated 2016).

Values after ≈ are worked out from the molar mass of the structure shown.

The first assay relates to PANC-1 (pancreatic cancer) cells. Description: MTT cell growth inhibition, solid tumor cells. It is filed as cell-based, human. The note with it: Homo sapiens; PANC-1, 72 h, MTT; read-out: IC90. The gist of the method:
(§1)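 Human tumor cells seeded at 6000 per well grow 24 h in serum-supplemented (10% FBS) high-glucose DMEM. A 72 h incubation with graded compound doses at 37 °C follows, and MTT reports viable cell number.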
In general, IC90 refers to the concentration needed for an effect of 90%. With `COc1ccc2cc1Oc1ccc(cc1)C[C@H]1c3cc(c(OC)cc3CCN1C)Oc1c(OC(=O)c3ccc(N(C)C)cc3)c(OC)cc3c1[C@H](C2)N(C)CC3` [BS-FC-308], the concentration for an effect of 90% (IC90) was 8.53 µg/mL (≈ 11.3 µM).

A further assay has as its system PC-3 (prostate cancer) cells. Briefly: MTT cell growth inhibition, solid tumor cells. To be noted: Homo sapiens; PC-3, 72 h, MTT; read-out: IC50. It is filed as cell-based, human. Put shortly: as §1
A word on the IC50: it is the concentration that inhibits the measured activity by half. Consider `COc1ccc2cc1Oc1ccc(cc1)C[C@H]1c3cc(c(OC)cc3CCN1C)Oc1c(OC(=O)c3ccc(N(C)C)cc3)c(OC)cc3c1[C@H](C2)N(C)CC3` [BS-FC-308], for which the IC50 came to 2.4 µg/mL (≈ 3.17 µM).

The assay is the same for the next values; noted with them: Homo sapiens; PC-3, 72 h, MTT; read-out: IC90.
Regarding `COc1ccc2cc1Oc1ccc(cc1)C[C@H]1c3cc(c(OC)cc3CCN1C)Oc1c(OC(=O)c3ccc(N(C)C)cc3)c(OC)cc3c1[C@H](C2)N(C)CC3` [BS-FC-308], the concentration for an effect of 90% (IC90) is 3.49 µg/mL (≈ 4.62 µM).

The next assay deals with SK-OV-3 (ovarian cancer) cells. Description: MTT cell growth inhibition, solid tumor cells. It is filed as cell-based, human. The note with it: Homo sapiens; SK-OV-3, 72 h, MTT; read-out: IC50. Put shortly:
as §1
Turning to `COc1ccc2cc1Oc1ccc(cc1)C[C@H]1c3cc(c(OC)cc3CCN1C)Oc1c(OC(=O)c3ccc(N(C)C)cc3)c(OC)cc3c1[C@H](C2)N(C)CC3` [BS-FC-308], the IC50 amounted to 1.31 µg/mL (≈ 1.73 µM).

Still in this assay, the particulars now being: Homo sapiens; SK-OV-3, 72 h, MTT; read-out: IC90.
Take `COc1ccc2cc1Oc1ccc(cc1)C[C@H]1c3cc(c(OC)cc3CCN1C)Oc1c(OC(=O)c3ccc(N(C)C)cc3)c(OC)cc3c1[C@H](C2)N(C)CC3` [BS-FC-308]: the 90% effect concentration (IC90) is 1.93 µg/mL (≈ 2.55 µM).

The test system of the next assay is CaEs-17 (esophageal cancer) cells. Description: MTT cell growth inhibition, solid tumor cells. It is filed as cell-based, human. To be noted: Homo sapiens, CaEs17; CaEs-17, 72 h, MTT; read-out: IC50. Put shortly:
as §1
With `COc1ccc2cc1Oc1ccc(cc1)C[C@H]1c3cc(c(OC)cc3CCN1C)Oc1c(OC(=O)c3ccc(N(C)C)cc3)c(OC)cc3c1[C@H](C2)N(C)CC3` [BS-FC-308], the 50% inhibitory concentration (IC50) was 0.93 µg/mL (≈ 1.23 µM).

Still in this assay, the particulars now being: Homo sapiens, CaEs17; CaEs-17, 72 h, MTT; read-out: IC90.
For the compound `COc1ccc2cc1Oc1ccc(cc1)C[C@H]1c3cc(c(OC)cc3CCN1C)Oc1c(OC(=O)c3ccc(N(C)C)cc3)c(OC)cc3c1[C@H](C2)N(C)CC3` [BS-FC-308], the 90% effect concentration (IC90) stood at 3.92 µg/mL (≈ 5.19 µM).

The next assay concerns CNE (nasopharyngeal carcinoma) cells. Description: MTT cell growth inhibition, solid tumor cells. It is filed as cell-based, human. The note with it: Homo sapiens; CNE, 72 h, MTT; read-out: IC50. Put shortly:
as §1
Take `COc1ccc2cc1Oc1ccc(cc1)C[C@H]1c3cc(c(OC)cc3CCN1C)Oc1c(OC(=O)c3ccc(N(C)C)cc3)c(OC)cc3c1[C@H](C2)N(C)CC3` [BS-FC-308]: the IC50 came to 1.9 µg/mL (≈ 2.51 µM).

The same assay, now with this note: Homo sapiens; CNE, 72 h, MTT; read-out: IC90.
As to `COc1ccc2cc1Oc1ccc(cc1)C[C@H]1c3cc(c(OC)cc3CCN1C)Oc1c(OC(=O)c3ccc(N(C)C)cc3)c(OC)cc3c1[C@H](C2)N(C)CC3` [BS-FC-308], the IC90 was found to be 3.6 µg/mL (≈ 4.76 µM).

Another assay deals with RPMI 8226 (multiple myeloma) cells. Description: MTT cell growth inhibition, multiple myeloma cells. It is filed as cell-based, human. To be noted: Homo sapiens; RPMI 8226, 72 h, MTT; read-out: IC50. The gist of the method:
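RPMI 8226 myeloma cells, 6000 per well in RPMI-1640 with 10% FBS, were dosed with fangchinoline derivatives at several concentrations the day after seeding. Incubation ran 72 h at 37° C in 5% CO2, then viable cells were measured by MTT.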
Regarding `COc1ccc2cc1Oc1ccc(cc1)C[C@H]1c3cc(c(OC)cc3CCN1C)Oc1c(OC(=O)c3ccc(N(C)C)cc3)c(OC)cc3c1[C@H](C2)N(C)CC3` [BS-FC-308], the IC50 worked out at 0.12 µg/mL (≈ 0.159 µM).

Staying with this assay, now noted: Homo sapiens; RPMI 8226, 72 h, MTT; read-out: IC90.
With `COc1ccc2cc1Oc1ccc(cc1)C[C@H]1c3cc(c(OC)cc3CCN1C)Oc1c(OC(=O)c3ccc(N(C)C)cc3)c(OC)cc3c1[C@H](C2)N(C)CC3` [BS-FC-308], the IC90 was determined as 0.25 µg/mL (≈ 0.331 µM).

The test system of a further assay is Kasumi-1 (acute myeloid leukemia M2 type) cells. Briefly: MTT cell growth inhibition, leukemia cells. It is filed as cell-based, human. The note with it: Homo sapiens; Kasumi-1, 72 h, MTT; read-out: IC50. Put shortly:
(§2)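 MTT read-out of viable cells after 72 h compound exposure at 37° C., 5% CO2; 6000 cells/well in RPMI-1640 + 10% FBS, dosed one day after seeding over a range of concentrations.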
In the case of `COc1ccc2cc1Oc1ccc(cc1)C[C@H]1c3cc(c(OC)cc3CCN1C)Oc1c(OC(=O)c3ccc(N(C)C)cc3)c(OC)cc3c1[C@H](C2)N(C)CC3` [BS-FC-308], the half-inhibitory concentration (IC50) was determined as 0.81 µg/mL (≈ 1.07 µM).

The same assay, now with this note: Homo sapiens; Kasumi-1, 72 h, MTT; read-out: IC90.
`COc1ccc2cc1Oc1ccc(cc1)C[C@H]1c3cc(c(OC)cc3CCN1C)Oc1c(OC(=O)c3ccc(N(C)C)cc3)c(OC)cc3c1[C@H](C2)N(C)CC3` [BS-FC-308]: the 90% effect concentration (IC90) came out at 1.9 µg/mL (≈ 2.51 µM).

The next assay has as its system H9 (acute lymphoblastic leukemia) cells. Briefly: MTT cell growth inhibition, leukemia cells. The note with it: Homo sapiens; H9, 72 h, MTT; read-out: IC50. It is filed as cell-based, human. Put shortly:
as §2
For `COc1ccc2cc1Oc1ccc(cc1)C[C@H]1c3cc(c(OC)cc3CCN1C)Oc1c(OC(=O)c3ccc(N(C)C)cc3)c(OC)cc3c1[C@H](C2)N(C)CC3` [BS-FC-308], the IC50 was determined as 0.7 µg/mL (≈ 0.926 µM).

The assay is the same for the next values; noted with them: Homo sapiens; H9, 72 h, MTT; read-out: IC90.
Regarding `COc1ccc2cc1Oc1ccc(cc1)C[C@H]1c3cc(c(OC)cc3CCN1C)Oc1c(OC(=O)c3ccc(N(C)C)cc3)c(OC)cc3c1[C@H](C2)N(C)CC3` [BS-FC-308], the IC90 was determined as 1.8 µg/mL (≈ 2.38 µM).

The assay is the same for the next values; noted with them: relative to fangchinoline, Table 1.
For the compound `COc1ccc2cc1Oc1ccc(cc1)C[C@H]1c3cc(c(OC)cc3CCN1C)Oc1c(OC(=O)c3ccc(N(C)C)cc3)c(OC)cc3c1[C@H](C2)N(C)CC3` [BS-FC-308], the “anti-H9 activity increase over fangchinoline” value is greater than 3 fold.

The subject of a further assay is Jurkat (acute lymphoblastic leukemia) cells. Briefly: MTT cell growth inhibition, leukemia cells. It is filed as cell-based, human. The note with it: Homo sapiens; Jurkat, 72 h, MTT; read-out: IC50. The gist of the method:
as §2
As for `COc1ccc2cc1Oc1ccc(cc1)C[C@H]1c3cc(c(OC)cc3CCN1C)Oc1c(OC(=O)c3ccc(N(C)C)cc3)c(OC)cc3c1[C@H](C2)N(C)CC3` [BS-FC-308], the IC50 turned out to be 0.36 µg/mL (≈ 0.476 µM).

The same assay, now with this note: Homo sapiens; Jurkat, 72 h, MTT; read-out: IC90.
As to `COc1ccc2cc1Oc1ccc(cc1)C[C@H]1c3cc(c(OC)cc3CCN1C)Oc1c(OC(=O)c3ccc(N(C)C)cc3)c(OC)cc3c1[C@H](C2)N(C)CC3` [BS-FC-308], the concentration for an effect of 90% (IC90) was 1.62 µg/mL (≈ 2.14 µM).

The assay is the same for the next values; noted with them: relative to fangchinoline, Table 1.
Consider `COc1ccc2cc1Oc1ccc(cc1)C[C@H]1c3cc(c(OC)cc3CCN1C)Oc1c(OC(=O)c3ccc(N(C)C)cc3)c(OC)cc3c1[C@H](C2)N(C)CC3` [BS-FC-308], for which the “anti-Jurkat activity increase over fangchinoline” value was “more than 4 fold”.
